Measurements as given in US8415469B2, “Compounds and methods for kinase modulation, and indications therefor” (Plexxikon Inc., priority 2005, dated 2013).

How the values were obtained:
Format in all cases: biochemical
B-Raf = target: T1, B-Raf (Homo sapiens, UniProt P15056); assay: AlphaScreen kinase assay, B-Raf; conditions: read-out: IC50, activity toward kinase B-Raf
T1 construct: purchased Upstate Biotechnology

B-Raf V600E = target: T2, B-Raf V600E (Homo sapiens, UniProt P15056, V600E); assay: AlphaScreen kinase assay, B-Raf V600E; conditions: read-out: IC50, activity toward kinase B-Raf V600E
T2 construct: P4254. pFastBacBD-CDC37 BRAF D437-K722-X, V600E; His6 with pFastBac HT leader (TEV site) (N); made in house; host or cells: Sf9 (baculovirus; chaperone CDC37 co-expressed)
T2 sequence (P15056 with tags, fused parts or gaps V600E): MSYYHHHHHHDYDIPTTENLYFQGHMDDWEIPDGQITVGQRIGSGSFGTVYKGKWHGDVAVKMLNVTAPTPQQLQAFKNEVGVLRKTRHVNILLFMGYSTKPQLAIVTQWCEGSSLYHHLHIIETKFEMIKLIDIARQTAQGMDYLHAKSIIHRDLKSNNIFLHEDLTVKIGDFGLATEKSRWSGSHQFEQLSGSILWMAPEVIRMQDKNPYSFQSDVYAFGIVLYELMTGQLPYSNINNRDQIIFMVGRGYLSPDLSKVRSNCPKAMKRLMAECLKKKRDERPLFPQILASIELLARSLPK

Fms = target: T3, Fms (Homo sapiens, UniProt P07333); assay: AlphaScreen kinase assay, Fms; conditions: read-out: IC50, activity toward kinase Fms
T3 construct: purchased Upstate Biotechnology
T3 sequence (P07333 20-972): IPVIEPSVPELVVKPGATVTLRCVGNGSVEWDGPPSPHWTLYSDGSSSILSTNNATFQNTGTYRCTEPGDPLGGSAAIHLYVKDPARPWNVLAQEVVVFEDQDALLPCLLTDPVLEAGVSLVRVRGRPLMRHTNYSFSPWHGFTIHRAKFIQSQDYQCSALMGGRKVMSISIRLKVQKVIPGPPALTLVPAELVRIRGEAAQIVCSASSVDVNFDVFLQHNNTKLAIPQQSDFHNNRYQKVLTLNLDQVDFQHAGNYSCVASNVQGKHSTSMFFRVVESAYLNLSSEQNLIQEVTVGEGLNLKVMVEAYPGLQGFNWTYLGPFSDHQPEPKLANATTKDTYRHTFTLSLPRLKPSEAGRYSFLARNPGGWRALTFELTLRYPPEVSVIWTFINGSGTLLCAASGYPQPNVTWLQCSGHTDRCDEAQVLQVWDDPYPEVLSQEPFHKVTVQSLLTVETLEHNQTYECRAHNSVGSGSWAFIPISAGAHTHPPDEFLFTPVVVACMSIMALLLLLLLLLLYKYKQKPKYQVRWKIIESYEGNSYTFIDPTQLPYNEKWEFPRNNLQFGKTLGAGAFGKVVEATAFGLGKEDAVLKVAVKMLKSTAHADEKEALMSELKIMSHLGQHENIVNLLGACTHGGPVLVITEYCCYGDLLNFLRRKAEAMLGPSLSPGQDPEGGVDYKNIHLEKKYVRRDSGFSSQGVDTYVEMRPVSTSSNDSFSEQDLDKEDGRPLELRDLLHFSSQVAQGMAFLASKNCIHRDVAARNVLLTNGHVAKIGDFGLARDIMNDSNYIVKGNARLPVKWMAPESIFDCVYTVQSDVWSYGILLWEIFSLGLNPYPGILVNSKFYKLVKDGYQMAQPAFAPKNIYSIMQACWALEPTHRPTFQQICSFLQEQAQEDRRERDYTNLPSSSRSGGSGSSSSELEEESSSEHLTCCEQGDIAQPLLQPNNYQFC

Jnk2 = target: T4, Jnk2 (Homo sapiens, UniProt P45984); assay: AlphaScreen kinase assay, Jnk2; conditions: read-out: IC50, activity toward kinase Jnk2
T4 construct: purchased Roche Protein Expression Group (Indianapolis, IN)
T4 sequence (P45984 whole entry): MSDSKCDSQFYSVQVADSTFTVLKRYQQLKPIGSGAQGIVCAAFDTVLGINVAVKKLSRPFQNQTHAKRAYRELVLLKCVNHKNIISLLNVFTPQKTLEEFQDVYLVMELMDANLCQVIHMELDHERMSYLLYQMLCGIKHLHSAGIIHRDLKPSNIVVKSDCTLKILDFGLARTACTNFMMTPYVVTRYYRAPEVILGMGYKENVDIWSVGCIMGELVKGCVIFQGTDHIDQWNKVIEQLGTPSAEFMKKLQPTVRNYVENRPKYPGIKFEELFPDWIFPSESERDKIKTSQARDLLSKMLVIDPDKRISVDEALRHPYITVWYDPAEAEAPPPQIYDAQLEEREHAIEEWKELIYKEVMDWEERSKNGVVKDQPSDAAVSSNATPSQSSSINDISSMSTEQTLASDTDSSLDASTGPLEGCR
Source text: AlphaScreen assay was used to screen additional kinases. The assay is similarly dependent on the phosphorylation of a peptide substrate. In this assay, an antibody that recognizes phosphorylated substrate is bound to an acceptor bead. The peptide substrate is attached to biotin, which binds to a donor head that contains streptavidin. Thus phosphorylated substrate is bound by antibody and streptavidin, bringing the donor and acceptor heads into close proximity when kinase is not inhibited. The donor produces singlet oxygen which results in emission from the acceptor when they are in close proximity. Conversely, when kinase is inhibited, the donor and acceptor beads are not associated and the emission from the acceptor is reduced.
AlphaScreen assays were done using compounds dissolved in DMSO to a concentration of 20 mM. The compounds were diluted accordingly to the desired final concentrations in each sample well, using 1:3 serial dilution for a total of 8 concentration points.

c-Raf-1 = target: T5, c-Raf-1 (Homo sapiens, UniProt P04049); assay: AlphaScreen kinase assay, c-Raf-1; conditions: read-out: IC50, activity toward kinase c-Raf-1
T5 construct: purchased Upstate Biotechnology
T5 sequence (P04049 whole entry): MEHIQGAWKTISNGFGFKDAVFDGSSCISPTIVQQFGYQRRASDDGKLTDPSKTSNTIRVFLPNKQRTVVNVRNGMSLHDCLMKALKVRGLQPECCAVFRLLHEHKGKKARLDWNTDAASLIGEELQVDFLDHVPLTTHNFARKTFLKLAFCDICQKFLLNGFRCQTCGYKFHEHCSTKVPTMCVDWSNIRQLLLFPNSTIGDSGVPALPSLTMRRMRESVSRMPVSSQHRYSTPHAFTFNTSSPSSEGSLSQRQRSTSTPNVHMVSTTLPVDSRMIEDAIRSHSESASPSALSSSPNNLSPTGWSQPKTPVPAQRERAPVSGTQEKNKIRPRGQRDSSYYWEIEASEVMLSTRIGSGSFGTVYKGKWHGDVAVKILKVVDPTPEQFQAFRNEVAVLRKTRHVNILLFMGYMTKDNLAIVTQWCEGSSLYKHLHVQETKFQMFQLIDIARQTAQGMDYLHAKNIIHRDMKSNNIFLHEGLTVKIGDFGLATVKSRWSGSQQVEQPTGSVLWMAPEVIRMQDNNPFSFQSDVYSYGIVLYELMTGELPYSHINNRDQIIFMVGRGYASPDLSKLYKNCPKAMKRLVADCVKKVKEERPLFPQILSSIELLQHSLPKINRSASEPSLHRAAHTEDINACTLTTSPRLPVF

Kit = target: T6, Kit (Homo sapiens, UniProt P10721); assay: AlphaScreen kinase assay, Kit; conditions: read-out: IC50, activity toward kinase Kit
T6 construct: P1332.N6 BI PTP KIT M552-K948-X COD; His6 (N); made in house; host or cells: E. coli (PTP1B co-expressed)
T6 sequence (P10721 with tags, fused parts or gaps): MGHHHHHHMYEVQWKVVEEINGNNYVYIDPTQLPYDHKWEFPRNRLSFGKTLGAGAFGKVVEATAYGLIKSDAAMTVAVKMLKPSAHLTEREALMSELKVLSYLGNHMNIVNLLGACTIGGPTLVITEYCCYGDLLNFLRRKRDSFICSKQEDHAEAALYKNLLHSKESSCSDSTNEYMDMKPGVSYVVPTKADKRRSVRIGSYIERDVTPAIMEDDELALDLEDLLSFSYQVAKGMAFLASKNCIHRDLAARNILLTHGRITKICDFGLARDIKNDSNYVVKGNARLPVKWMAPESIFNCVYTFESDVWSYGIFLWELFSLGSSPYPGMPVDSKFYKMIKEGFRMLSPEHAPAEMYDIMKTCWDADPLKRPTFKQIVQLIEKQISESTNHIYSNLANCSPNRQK

Flt1 = target: T7, Flt1 (Homo sapiens, UniProt P17948); assay: AlphaScreen kinase assay, Flt1; conditions: read-out: IC50, activity toward kinase Flt1
T7 construct: P1826.pETN6 BI-PTP FLT1 M799-D1165-X WT; His6 (N); made in house; host or cells: E. coli (PTP1B co-expressed)
T7 sequence (P17948 with tags, fused parts or gaps): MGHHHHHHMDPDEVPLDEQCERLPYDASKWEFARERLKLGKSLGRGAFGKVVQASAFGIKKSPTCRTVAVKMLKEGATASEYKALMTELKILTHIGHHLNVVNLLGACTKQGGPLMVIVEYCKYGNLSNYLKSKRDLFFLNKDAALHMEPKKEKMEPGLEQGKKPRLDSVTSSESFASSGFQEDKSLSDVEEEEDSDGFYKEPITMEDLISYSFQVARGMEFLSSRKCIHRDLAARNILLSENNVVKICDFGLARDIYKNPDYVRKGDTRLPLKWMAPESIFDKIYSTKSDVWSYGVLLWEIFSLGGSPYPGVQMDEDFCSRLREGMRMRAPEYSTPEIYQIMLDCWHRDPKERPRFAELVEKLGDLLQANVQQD
Protocol: AlphaScreen assays were done using compounds dissolved in DMSO to a concentration of 20 mM. The compounds were diluted accordingly to the desired final concentrations in each sample well, using 1:3 serial dilution for a total of 8 concentration points. Plates were prepared such that each kinase reaction is 20 μl in 1× kinase buffer, 5% DMSO and 10 μM ATP. After incubation of the kinase reaction for 1 hour at room temperature, 5 μl of donor beads in stop buffer (50 mM EDTA in 1× kinase buffer) was added, the sample was mixed and incubated for 20 minutes at room temperature before adding 5 μl of acceptor beads in stop buffer. The samples were incubated for 60 minutes at room temperature and the signal per well was read on AlphaQuest reader.

Measured: IC50

T1 sequence (P15056 whole entry): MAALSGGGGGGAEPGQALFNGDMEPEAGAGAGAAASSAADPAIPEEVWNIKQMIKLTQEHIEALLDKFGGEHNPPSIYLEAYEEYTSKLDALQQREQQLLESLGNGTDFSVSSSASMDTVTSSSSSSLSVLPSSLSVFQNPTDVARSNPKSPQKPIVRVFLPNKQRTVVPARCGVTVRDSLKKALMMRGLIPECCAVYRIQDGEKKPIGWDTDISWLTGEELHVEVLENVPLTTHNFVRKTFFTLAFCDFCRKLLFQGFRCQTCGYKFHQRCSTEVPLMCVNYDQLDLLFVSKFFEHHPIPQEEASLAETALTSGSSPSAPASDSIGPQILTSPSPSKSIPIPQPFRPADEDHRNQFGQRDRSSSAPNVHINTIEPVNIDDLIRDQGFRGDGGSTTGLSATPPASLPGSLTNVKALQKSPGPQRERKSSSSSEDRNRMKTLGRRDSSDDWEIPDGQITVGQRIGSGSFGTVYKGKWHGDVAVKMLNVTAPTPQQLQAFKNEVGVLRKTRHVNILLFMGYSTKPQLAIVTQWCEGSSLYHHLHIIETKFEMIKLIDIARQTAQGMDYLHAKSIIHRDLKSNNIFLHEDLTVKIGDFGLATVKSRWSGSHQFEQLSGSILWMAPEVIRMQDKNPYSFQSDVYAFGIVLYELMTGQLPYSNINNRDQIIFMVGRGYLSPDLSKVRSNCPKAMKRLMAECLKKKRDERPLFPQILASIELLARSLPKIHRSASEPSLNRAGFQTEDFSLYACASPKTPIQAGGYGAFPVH

O=C(Nc1cccc(C(=O)c2c[nH]c3ncc(-c4cccnc4)cc23)c1)Nc1cc(C(F)(F)F)ccc1Cl [Compound P-1732, 1-(2-Chloro-5-trifluoromethyl-phenyl)-3-[3-(5-pyridin-3-yl-1H-pyrrolo[2,3-b]pyridine-3-carbonyl)-phenyl]-urea]
≤ 10 µM: B-Raf | B-Raf V600E | Fms | Jnk2

O=C(Nc1ccc(C(=O)c2c[nH]c3ncccc23)cc1)Nc1cccc(C(F)(F)F)c1 [Compound P-1671]
not listed: Flt1
≤ 10 µM: all other assays above

CCCCOc1ccc(NC(=O)Nc2cccc(C(=O)c3c[nH]c4ncc(-c5cccnc5)cc34)c2)cc1 [Compound P-1729, 1-(4-Butoxy-phenyl)-3-[3-(5-pyridin-3-yl-1H-pyrrolo[2,3-b]pyridine-3-carbonyl)-phenyl]-urea]
≤ 10 µM: B-Raf | B-Raf V600E | Fms | Jnk2

O=C(Nc1cccc(C(=O)c2c[nH]c3ncc(Cl)cc23)c1)Nc1ccc(Cl)c(C(F)(F)F)c1 [Compound P-1737, 1-[3-(5-Chloro-1H-pyrrolo[2,3-b]pyridine-3-carbonyl)-phenyl]-3-(4-chloro-3-trifluoromethyl-phenyl)-urea]
not listed: Flt1
≤ 10 µM: all other assays above

CCc1ccc(S(=O)(=O)Nc2ccc(F)c(C(=O)c3c[nH]c4ncc(Cl)cc34)c2F)cc1 [Compound P-1700, N-[3-(5-Chloro-1H-pyrrolo[2,3-b]pyridine-3-carbonyl)-2,4-difluoro-phenyl]-4-ethyl-benzenesulfonamide]
not listed: c-Raf-1 | Flt1
≤ 10 µM: all other assays above

O=C(Nc1cccc(C(=O)c2c[nH]c3ncc(-c4cccnc4)cc23)c1)Nc1cccc(C(F)(F)F)c1F [Compound P-1728, 1-(2-Fluoro-3-trifluoromethyl-phenyl)-3-[3-(5-pyridin-3-yl-1H-pyrrolo[2,3-b]pyridine-3-carbonyl)-phenyl]-urea]
≤ 10 µM: B-Raf | B-Raf V600E | Fms | Jnk2

O=C(Nc1ccc(F)c(Cc2c[nH]c3ncc(Cl)cc23)c1F)NC1CCCC1 [Compound P-1575, 1-[3-(5-Chloro-1H-pyrrolo[2,3-b]pyridin-3-ylmethyl)-2,4-difluoro-phenyl]-3-cyclopentyl-urea]
not listed: B-Raf | c-Raf-1
≤ 10 µM: all other assays above

O=C(Nc1cccc(C(=O)c2c[nH]c3ncccc23)c1)Nc1ccc(Cl)c(C(F)(F)F)c1 [Compound P-1711, 1-(4-Chloro-3-trifluoromethyl-phenyl)-3-[3-(1H-pyrrolo[2,3-b]pyridine-3-carbonyl)-phenyl]-urea]
not listed: c-Raf-1 | Flt1
≤ 10 µM: all other assays above
